Measured values published in ChEMBL document CHEMBL1201862, “PubChem BioAssay data set” (2004).
Values joined by “and” are separate entries in the source; they are usually repeats but may differ in a detail not shown here. Equal entries are not always repeated. Active and inactive are the calls of the source.

Key:
[1] = molecular target: T1, Neuropeptides B/W receptor type 1 (Homo sapiens, UniProt P48145); experiment: human NPBW1 receptor blockade, IC50 – cell-based, fluorescence, dose response, set 5, late-stage follow-up (AID 588566); format: functional
T1 sequence (P48145 whole entry): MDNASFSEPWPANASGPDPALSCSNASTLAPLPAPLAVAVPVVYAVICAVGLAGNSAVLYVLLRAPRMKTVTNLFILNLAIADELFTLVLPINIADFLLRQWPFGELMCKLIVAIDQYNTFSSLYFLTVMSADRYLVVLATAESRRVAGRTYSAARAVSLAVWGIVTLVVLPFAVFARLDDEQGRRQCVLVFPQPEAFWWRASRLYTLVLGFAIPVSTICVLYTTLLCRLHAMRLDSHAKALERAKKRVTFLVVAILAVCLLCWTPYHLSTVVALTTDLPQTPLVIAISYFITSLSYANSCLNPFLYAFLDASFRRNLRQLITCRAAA

[2] = molecular target: Melanin-concentrating hormone receptor 1 (Homo sapiens, UniProt Q99705); experiment: Late-stage fluorescence-based counterscreen for antagonists of the G-protein coupled receptor 7 (GPR7): cell-based dose response assay to identify antagonists of the melanin-concentrating hormone receptor 1 (MCHR1) Set 5.; format: functional
Melanin-concentrating hormone receptor 1, sequence (Q99705 whole entry): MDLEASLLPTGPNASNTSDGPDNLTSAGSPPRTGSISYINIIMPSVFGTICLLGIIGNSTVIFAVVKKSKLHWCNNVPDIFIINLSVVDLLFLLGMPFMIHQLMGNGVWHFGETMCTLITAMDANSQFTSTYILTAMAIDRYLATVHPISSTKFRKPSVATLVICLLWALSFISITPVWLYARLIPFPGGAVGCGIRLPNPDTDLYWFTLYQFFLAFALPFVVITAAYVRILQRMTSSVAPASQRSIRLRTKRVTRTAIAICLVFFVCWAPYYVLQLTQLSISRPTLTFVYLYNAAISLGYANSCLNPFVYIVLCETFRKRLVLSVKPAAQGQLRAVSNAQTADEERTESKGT

[3] = mammalian cell viability loss – Alamar Blue, dry powder, cytotoxicity control for antifungal single agent project, dose response (AID 602188); format: functional, cell-based
[4] = bead-based luminescence quenchers, dual-tagged ARNT – biochemical, AlphaScreen, cherry-pick, artefact control for ARNT-TACC3 interaction inhibitor project, dose response (AID 651705); format: functional;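 note: AlphaScreen bead proximity signal that flags compounds interfering with the detection technology; potency reflects signal decrease which marks the compound as an assay artifact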
Nonstructural protein 1 = Nonstructural protein 1 (Influenza A virus, UniProt Q194T2); format: functional, Influenza A virus (A/California/07/2009(H1N1))
[5] = Fluorescence-based cell-based high throughput dose response assay for inhibitors of the interaction of nucleotide-binding oligomerization domain containing 2 (NOD2) and the receptor-interacting serine-threonine kinase 2 (RIPK2).; format: functional; conditions: Homo sapiens
HEK293 [6] = experiment: cells; format: functional, cell-based; conditions: Homo sapiens
[7] = COV362 cell viability loss – plate reader, dry powder, SA12, cytotoxicity control for PAX8 inhibitor project, dose response (AID 743144); format: functional, cell-based
HEK293 [8] = experiment: cells; format: functional, cell-based; conditions: Homo sapiens; remark: listed apart in the source
[9] = molecular target: Nucleotide-binding oligomerization domain-containing protein 2 (Homo sapiens, UniProt Q9HC29); experiment: inhibition of NOD2-driven NF-kB reporter – cell-based, luminescence, uHTS, HEK293 (AID 1566); format: functional
[10] = OV-90 cell viability loss – plate reader, dry powder, SA8, PAX8 inhibitor project, dose response (AID 743149); format: functional, cell-based
[11] = IGROV1 cell killing – plate reader, dry powder samples, PAX8 inhibitor project, dose response (AID 743043); format: functional, cell-based; conditions: IGROV-1
Beta Lactamase = Beta Lactamase (Pseudomonas aeruginosa, UniProt Q932Y6); experiment: BLA reporter interference, concentration series – BLA reporter cells, FRET fluorescence, artefact control for NOD2-RIPK2 interaction inhibitor project, dose response (AID 651552); format: functional, cell-based
Beta Lactamase, sequence (Q932Y6 whole entry): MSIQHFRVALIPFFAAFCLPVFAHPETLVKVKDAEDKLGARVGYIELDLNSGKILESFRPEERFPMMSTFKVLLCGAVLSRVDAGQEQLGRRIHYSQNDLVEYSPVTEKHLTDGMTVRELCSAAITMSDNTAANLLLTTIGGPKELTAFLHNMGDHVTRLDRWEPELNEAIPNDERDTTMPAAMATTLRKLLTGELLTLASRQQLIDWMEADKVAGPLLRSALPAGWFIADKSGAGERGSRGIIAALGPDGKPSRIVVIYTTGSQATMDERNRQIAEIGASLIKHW

[12] = OVCAR-3 cell viability loss – plate reader, dry powder samples, PAX8 inhibitor project, dose response (AID 743044); format: functional, cell-based
[13] = PAX8-dependent cell viability loss – plate reader, dry powder, dose response (AID 743049); format: functional, cell-based
HEK293 [14] = experiment: cells; format: functional, cell-based; conditions: Homo sapiens; remark: listed apart in the source
[15] = OVCAR4 cell viability loss – plate reader, dry powder, SA11, cytotoxicity control for PAX8 inhibitor project, dose response (AID 743150); format: functional, cell-based; conditions: OVCAR-4
[16] = COV434 cell viability loss – plate reader, dry powder, SA7, cytotoxicity control for PAX8 inhibitor project, dose response (AID 743145); format: functional, cell-based
HEK293 [17] = experiment: NOD2 signaling inhibitors in MDP-stimulated cells, cell-based, uHTS, luminescence (AID 2001); format: functional; conditions: Homo sapiens
HEK293 [18] = experiment: inhibition of NOD1-driven NF-kB reporter – cell-based, luminescence, uHTS, primary screen (AID 1578); format: functional; conditions: Homo sapiens
Beta-galactosidase = Beta-galactosidase (Escherichia coli, UniProt Q8VNN2); experiment: detection-enzyme interference by beta-gal modulators – biochemical, E. coli enzyme, set 3, artefact control for CCR6 antagonist project, dose response (AID 504712); format: functional
Beta-galactosidase, sequence (Q8VNN2 whole entry): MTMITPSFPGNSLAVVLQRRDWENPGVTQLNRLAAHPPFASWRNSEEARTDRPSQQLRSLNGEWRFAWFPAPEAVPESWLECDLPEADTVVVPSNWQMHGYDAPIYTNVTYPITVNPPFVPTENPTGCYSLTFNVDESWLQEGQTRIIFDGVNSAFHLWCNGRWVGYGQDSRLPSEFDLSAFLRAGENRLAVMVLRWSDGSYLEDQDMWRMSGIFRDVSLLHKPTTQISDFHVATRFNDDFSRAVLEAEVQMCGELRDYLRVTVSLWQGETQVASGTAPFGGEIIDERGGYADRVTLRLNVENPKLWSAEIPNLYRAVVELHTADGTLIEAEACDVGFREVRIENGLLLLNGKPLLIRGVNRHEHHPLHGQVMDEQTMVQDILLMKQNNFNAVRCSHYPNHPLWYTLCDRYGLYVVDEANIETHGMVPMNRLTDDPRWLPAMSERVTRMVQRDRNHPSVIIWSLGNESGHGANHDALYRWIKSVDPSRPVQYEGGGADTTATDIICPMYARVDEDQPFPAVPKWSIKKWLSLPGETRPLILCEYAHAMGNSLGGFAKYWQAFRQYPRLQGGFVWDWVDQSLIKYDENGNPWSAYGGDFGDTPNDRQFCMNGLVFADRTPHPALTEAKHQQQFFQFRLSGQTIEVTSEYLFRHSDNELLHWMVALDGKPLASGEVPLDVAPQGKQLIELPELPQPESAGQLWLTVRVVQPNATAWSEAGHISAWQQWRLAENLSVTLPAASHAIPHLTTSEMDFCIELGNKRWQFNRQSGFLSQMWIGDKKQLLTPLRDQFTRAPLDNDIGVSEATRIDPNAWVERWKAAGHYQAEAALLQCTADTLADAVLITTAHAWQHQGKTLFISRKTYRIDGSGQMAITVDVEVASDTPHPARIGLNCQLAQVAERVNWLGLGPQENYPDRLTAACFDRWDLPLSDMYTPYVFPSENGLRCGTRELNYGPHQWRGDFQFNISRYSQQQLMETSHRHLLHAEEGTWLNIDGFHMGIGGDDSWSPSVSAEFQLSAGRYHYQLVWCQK

Paired box protein Pax-8 = Paired box protein Pax-8 (Homo sapiens, UniProt Q06710); experiment: PAX8 transcriptional activity inhibition in RMG-I – RMG-I cells, luciferase, cherry-pick, dose response (AID 687027); format: functional, cell-based;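 note: luciferase reporter driven by Pax8 target thyroperoxidase promoter measured by SteadyGlo luminescence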
Paired box protein Pax-8, sequence (Q06710 whole entry): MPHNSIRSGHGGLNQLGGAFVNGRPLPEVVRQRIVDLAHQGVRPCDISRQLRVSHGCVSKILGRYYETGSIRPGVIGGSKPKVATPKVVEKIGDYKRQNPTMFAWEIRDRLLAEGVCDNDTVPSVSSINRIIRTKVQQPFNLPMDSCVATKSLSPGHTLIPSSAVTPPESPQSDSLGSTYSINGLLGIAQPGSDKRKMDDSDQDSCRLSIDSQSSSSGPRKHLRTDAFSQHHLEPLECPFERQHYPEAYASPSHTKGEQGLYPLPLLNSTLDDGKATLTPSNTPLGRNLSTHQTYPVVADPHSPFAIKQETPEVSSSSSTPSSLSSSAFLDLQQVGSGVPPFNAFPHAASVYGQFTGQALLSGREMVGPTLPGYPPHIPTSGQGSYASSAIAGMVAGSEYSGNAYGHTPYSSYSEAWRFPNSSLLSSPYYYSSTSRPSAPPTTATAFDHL

[19] = molecular target: T2, DNA repair protein RAD52 homolog (Homo sapiens, UniProt P43351); format: functional, biochemical
T2 sequence (P43351 whole entry): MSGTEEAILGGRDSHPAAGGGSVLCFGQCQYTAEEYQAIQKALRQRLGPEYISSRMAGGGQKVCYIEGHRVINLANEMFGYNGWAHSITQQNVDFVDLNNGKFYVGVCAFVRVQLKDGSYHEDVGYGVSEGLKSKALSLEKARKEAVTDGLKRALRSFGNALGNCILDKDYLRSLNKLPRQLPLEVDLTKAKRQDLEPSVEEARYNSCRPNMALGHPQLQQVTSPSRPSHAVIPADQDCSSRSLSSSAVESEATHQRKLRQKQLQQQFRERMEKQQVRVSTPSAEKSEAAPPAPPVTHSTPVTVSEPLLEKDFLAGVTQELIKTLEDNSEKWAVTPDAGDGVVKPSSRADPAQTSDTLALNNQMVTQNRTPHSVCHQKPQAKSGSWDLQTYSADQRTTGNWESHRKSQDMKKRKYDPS

CAAX prenyl protease 2 [20] = molecular target: T3, CAAX prenyl protease 2 (Saccharomyces cerevisiae S288c, UniProt Q03530); format: biochemical
T3 sequence (Q03530 whole entry): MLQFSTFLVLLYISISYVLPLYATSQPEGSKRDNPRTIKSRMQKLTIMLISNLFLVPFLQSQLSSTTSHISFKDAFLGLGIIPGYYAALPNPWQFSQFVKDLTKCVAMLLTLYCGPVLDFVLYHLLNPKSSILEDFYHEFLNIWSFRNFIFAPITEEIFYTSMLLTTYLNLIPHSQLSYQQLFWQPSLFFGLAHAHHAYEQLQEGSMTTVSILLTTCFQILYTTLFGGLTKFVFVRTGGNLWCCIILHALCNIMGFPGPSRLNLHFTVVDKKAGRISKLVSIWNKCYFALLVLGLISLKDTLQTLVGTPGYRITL

Melanocortin receptor 4 = Melanocortin receptor 4 (Homo sapiens, UniProt P32245); experiment: inhibitors of MC4R cAMP signaling – cell-based, TR-FRET, biased antagonists, dose response (AID 602298); format: functional;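 note: antagonist potency against agonist-stimulated cAMP production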
Melanocortin receptor 4, sequence (P32245 whole entry): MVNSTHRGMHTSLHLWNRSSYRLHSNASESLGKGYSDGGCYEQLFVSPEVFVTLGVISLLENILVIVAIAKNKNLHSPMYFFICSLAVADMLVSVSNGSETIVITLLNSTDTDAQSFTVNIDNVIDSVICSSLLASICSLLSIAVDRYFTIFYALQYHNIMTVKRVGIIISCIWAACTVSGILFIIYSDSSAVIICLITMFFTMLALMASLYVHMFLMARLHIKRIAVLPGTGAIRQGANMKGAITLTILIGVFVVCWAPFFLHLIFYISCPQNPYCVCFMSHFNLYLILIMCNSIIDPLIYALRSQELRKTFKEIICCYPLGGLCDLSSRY

CAAX prenyl protease 2 [21] = molecular target: CAAX prenyl protease 2 (Homo sapiens, UniProt Q9Y256); experiment: inhibition of Ras-converting CAAX protease Rce1 – biochemical, yeast membranes, quenched-peptide fluorescence, cherry-pick, dose response (AID 588849)
CAAX prenyl protease 2 (Homo sapiens, UniProt Q9Y256), sequence (Q9Y256 whole entry): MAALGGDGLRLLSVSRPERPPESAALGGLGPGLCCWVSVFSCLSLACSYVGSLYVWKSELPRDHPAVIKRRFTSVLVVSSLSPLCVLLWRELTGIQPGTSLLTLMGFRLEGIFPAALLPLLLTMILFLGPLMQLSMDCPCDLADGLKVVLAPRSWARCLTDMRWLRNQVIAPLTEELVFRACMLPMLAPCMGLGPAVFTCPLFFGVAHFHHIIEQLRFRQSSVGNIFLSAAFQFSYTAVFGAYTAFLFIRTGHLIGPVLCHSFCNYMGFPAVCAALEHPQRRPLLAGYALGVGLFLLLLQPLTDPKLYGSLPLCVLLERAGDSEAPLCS

[22] = molecular target: ATP-dependent molecular chaperone HSP82 (Candida albicans (strain WO-1) (Yeast), UniProt C4YTQ8); experiment: steroid-induced GRE reporter decrease in yeast – S. cerevisiae, luminescence, Hsp90 inhibitor project, dose response (AID 2400); format: functional, cell-based;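 note: beta-galactosidase luminescence from glucocorticoid response element reporter as proxy for Hsp90 function; inhibitor potency where signal loss means Hsp90 inhibition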
ATP-dependent molecular chaperone HSP82, sequence (C4YTQ8 whole entry): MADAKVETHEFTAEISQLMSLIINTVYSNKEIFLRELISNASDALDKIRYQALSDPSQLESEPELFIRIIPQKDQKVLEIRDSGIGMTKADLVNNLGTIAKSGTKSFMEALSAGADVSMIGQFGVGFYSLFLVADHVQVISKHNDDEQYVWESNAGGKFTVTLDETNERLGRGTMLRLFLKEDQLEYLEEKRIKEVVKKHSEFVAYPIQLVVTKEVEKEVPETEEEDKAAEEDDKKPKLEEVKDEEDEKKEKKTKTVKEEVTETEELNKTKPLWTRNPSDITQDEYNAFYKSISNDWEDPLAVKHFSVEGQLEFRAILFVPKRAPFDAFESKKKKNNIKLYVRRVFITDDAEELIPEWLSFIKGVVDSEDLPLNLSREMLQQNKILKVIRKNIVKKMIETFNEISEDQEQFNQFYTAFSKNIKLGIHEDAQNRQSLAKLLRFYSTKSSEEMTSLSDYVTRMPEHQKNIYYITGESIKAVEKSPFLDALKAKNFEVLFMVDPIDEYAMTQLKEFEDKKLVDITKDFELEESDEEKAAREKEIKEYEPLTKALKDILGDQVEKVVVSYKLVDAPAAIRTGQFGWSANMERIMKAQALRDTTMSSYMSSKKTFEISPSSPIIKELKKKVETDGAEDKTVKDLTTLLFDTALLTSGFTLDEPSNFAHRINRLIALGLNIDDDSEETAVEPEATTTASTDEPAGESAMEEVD

[23] = molecular target: T4, Rac GTPase-activating protein 1 (Homo sapiens, UniProt Q9H0H5); experiment: blockers of MgcRacGAP-driven Rac1 GTP hydrolysis – biochemical, ADP Hunter fluorescence, primary and confirmatory, confirmation (AID 624330); format: functional
T4 sequence (Q9H0H5 whole entry): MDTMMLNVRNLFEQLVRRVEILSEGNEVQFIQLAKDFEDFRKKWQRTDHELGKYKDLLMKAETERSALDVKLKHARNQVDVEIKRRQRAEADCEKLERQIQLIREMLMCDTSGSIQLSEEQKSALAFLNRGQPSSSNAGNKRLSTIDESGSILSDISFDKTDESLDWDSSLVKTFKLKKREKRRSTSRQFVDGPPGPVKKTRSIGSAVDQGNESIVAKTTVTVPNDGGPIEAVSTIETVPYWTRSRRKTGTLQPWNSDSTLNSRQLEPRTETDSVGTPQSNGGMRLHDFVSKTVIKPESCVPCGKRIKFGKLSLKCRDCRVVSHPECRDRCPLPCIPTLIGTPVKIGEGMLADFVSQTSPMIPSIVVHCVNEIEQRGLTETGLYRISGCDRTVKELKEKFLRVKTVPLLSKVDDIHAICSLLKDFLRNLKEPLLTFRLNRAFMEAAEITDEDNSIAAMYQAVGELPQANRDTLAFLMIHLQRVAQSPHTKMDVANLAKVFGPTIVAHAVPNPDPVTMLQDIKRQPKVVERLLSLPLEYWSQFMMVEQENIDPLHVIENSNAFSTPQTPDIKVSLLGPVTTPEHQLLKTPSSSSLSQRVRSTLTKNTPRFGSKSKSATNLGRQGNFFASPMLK

[24] = molecular target: Hepatocyte nuclear factor 4-alpha (Homo sapiens, UniProt P41235); format: functional, cell-based;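 note: biochemical luminescence-based dose-response counterscreen measuring inhibition of HNF4 dimerization, run alongside a screen for blockers of ABHD5–perilipin-5 interaction; split luciferase complementation of HNF4 fusion proteins in cell lysate measuring dimerization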
Hepatocyte nuclear factor 4-alpha, sequence (P41235 whole entry, the tested form may be a part): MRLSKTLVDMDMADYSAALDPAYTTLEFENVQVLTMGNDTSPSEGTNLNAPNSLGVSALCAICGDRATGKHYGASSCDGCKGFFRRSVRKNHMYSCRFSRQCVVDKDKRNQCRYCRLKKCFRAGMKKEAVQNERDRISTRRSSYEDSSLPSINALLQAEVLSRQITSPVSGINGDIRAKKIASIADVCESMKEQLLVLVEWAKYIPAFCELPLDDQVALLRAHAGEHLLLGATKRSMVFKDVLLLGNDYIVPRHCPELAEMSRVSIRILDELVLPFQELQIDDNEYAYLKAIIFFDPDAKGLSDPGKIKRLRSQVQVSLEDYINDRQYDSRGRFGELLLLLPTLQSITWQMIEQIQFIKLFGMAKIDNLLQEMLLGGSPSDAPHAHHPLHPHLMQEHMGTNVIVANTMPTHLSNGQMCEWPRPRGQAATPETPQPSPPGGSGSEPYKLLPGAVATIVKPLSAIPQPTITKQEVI

[25] = molecular target: ATP-binding cassette sub-family B member 6 (Homo sapiens, UniProt Q9NP58); experiment: concentration-dependent ABCB6 porphyrin transport blockade – K562-ABCB6 cells, flow cytometry, cherry pick 1, dose response (AID 623955); format: functional; conditions: read-out: EC50_MICROM
ATP-binding cassette sub-family B member 6, sequence (Q9NP58 whole entry): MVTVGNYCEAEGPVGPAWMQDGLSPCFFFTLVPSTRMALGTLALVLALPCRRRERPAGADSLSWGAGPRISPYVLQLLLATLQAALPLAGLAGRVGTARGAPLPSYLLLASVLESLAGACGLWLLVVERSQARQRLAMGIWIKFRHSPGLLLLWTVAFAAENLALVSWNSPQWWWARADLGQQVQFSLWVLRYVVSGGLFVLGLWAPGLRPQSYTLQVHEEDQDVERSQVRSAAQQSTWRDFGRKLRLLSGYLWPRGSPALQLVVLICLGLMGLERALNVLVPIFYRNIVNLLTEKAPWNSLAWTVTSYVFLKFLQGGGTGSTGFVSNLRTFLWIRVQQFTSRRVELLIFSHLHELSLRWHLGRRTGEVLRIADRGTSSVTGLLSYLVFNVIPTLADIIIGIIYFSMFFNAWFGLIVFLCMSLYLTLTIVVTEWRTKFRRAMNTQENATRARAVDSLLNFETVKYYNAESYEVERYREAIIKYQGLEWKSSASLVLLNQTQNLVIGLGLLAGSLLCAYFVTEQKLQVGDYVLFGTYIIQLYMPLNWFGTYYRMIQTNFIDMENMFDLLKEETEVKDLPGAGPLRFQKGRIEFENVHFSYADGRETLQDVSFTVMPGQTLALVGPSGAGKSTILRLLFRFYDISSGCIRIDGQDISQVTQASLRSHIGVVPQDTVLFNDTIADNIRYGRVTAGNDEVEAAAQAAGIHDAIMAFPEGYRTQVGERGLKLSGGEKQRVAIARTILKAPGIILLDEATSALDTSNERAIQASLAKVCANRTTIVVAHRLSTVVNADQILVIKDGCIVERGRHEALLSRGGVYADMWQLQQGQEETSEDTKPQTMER

O=C(C1CCCCN1Cc1cccc2ccccc12)N1CCN(c2ccc([N+](=O)[O-])cc2)CC1 (stereo not given)
IC50 [1]: > 20 µM (inactive)
IC50 [2]: > 20 µM (inactive)

O=C(Nc1nc(-c2ccccn2)cs1)c1ccccc1
AC50 [3]: 7.19 µM (active)

COc1cc([N+](=O)[O-])cc(/C=N/NC(=O)Cn2cncn2)c1O
AC50 [4]: 85 µM (active)
IC50 (Nonstructural protein 1): 10.1 µM (active)

COc1cccc2sc(N(CCCN(C)C)C(=O)CCS(=O)(=O)c3ccccc3)nc12
IC50 [5]: 4.68 µM (active)
IC50 (HEK293 [6]): > 20 µM (inactive)
AC50 [7]: 13.9 µM (active)
IC50 (HEK293 [8]): > 20 µM (inactive)
EC50 [9]: > 20 µM (inactive)
AC50 [10]: 43.1 µM (active)
AC50 [11]: 28.7 µM (active)
IC50 (Beta Lactamase): 17.2 µM (inactive)
AC50 [12]: 10 µM (active)
AC50 [13]: 8.54 µM (active)
IC50 (HEK293 [14]): 5.96 µM (active)
AC50 [15]: 22.1 µM (active)
AC50 [16]: 12.9 µM (active)
IC50 (HEK293 [17]): 6.06 µM (active)
EC50 (HEK293 [18]): 8.24 µM (active)
IC50 (Beta-galactosidase): > 66.6 µM (inactive)
AC50 (Paired box protein Pax-8): 7.04 µM (active)

[H]/N=C(\N/C(=N/[H])NCCCCCCNC(=N)NC(=N)Nc1ccc(Cl)cc1)Nc1ccc(Cl)cc1
AC50 [19]: 17.4 µM (active)
AC50 (CAAX prenyl protease 2 [20]): 23.1 µM (active)
IC50 (Melanocortin receptor 4): 1.55 µM (active)
AC50 (CAAX prenyl protease 2 [21]): 12.9 µM (active)
EC50 [22]: 19.8 µM (active) and > 160 µM (inactive)
IC50 [23]: 42.3 µM (active)
IC50 [24]: 21.4 µM (inactive)

C[N+](C)(C)CC1CCCC(C[N+](C)(C)C)C1=O (stereo not given)
EC50 [25]: 4.14 µM (active)
